In ChEMBL document CHEMBL5046262, “Fragment-Based Discovery of MRTX1719, a Synthetic Lethal Inhibitor of the PRMT5•MTA Complex for the Treatment of MTAP-Deleted Cancers” (J Med Chem, 2022):
“And” between values parts separate entries of the source, which are not always exact repeats. Equal entries are not always repeated.

How the values were obtained:
[1] = Lipophilicity, logD of the compound at pH 7.4; assay type: physicochemical; conditions: buffer
[2] = Apparent permeability across apical to basolateral side in dog MDCKII-MDR1 cells at 2 uM incubated for 2.5 hrs by LC-MS/MS analysis; assay type: ADME, cell-based, Canis lupus familiaris, MDCK-MDR1; conditions: for Papp A→B at 2.5 h, 2 µM: MDCK-MDR1; for Papp: mdck-mdr1, 2.5 h, 2 µM, 2.5 h
[3] = Intrinsic clearance in human hepatocytes; assay type: ADME, cell-based, Hepatocyte; conditions: read-out: CLH
[4] = Selectivity ratio of IC50 for antiproliferative activity against human HCT-116 cells expressing wild type MTAP to IC50 for antiproliferative activity against MTAP knockout human HCT-116 cells; assay type: functional
[5] = target: T1, Protein arginine N-methyltransferase 5 (Homo sapiens, UniProt O14744); experiment: Inhibition of PRMT5 methyltransferase activity in human HCT-116 cells expressing wild type MTAP assessed as inhibition of PRMT5- mediated SDMA modification level incubated for 96 hrs by Western blot analysis; assay type: cell-based
T1 sequence (O14744 whole entry): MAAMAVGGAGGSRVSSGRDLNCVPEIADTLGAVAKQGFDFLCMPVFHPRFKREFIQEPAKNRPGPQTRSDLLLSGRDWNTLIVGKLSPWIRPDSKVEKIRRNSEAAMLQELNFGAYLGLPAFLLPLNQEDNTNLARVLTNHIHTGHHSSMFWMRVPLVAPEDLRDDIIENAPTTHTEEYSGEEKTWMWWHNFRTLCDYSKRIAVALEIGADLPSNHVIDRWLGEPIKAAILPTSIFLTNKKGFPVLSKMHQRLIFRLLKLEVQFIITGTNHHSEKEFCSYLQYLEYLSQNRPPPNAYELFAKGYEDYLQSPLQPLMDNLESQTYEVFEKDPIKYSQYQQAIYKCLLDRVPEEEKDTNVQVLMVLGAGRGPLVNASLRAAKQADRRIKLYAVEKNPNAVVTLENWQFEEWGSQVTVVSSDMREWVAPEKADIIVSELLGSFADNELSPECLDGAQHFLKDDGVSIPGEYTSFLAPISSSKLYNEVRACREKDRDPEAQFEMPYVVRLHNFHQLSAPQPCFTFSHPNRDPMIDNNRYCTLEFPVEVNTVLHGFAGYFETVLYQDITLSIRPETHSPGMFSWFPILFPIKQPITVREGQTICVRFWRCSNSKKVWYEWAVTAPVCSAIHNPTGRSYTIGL

[6] = Efflux ratio of apparent permeability across basolateral to apical side over apical to basolateral side in dog MDCKII-MDR1 cells at 2 uM incubated for 2.5 hrs by LC-MS/MS analysis; assay type: ADME, cell-based, Canis lupus familiaris, MDCK-MDR1; conditions: for efflux ratio at 2.5 h, 2 µM: MDCK-MDR1
HCT-116 [7] = experiment: Antiproliferative activity against human HCT-116 cells expressing wild type MTAP assessed as reduction in cell viability incubated for 5 days followed by replacement with fresh medium containing compound and measured after 5 days by CTG assay; assay type: functional, cell-based
[8] = Intrinsic clearance in mouse hepatocytes; assay type: ADME, cell-based, Hepatocyte; conditions: read-out: CLH
[9] = target: T1, Protein arginine N-methyltransferase 5
HCT-116 [10] = experiment: Antiproliferative activity against MTAP knockout human HCT-116 cells assessed as reduction in cell viability incubated for 5 days followed by replacement with fresh medium containing compound and measured after 5 days by CTG assay; assay type: functional, cell-based
Homo sapiens = organism: Homo sapiens; experiment: Selectivity ratio of IC50 for inhibition of PRMT5 methyltransferase activity in human HCT-116 cells expressing wild type MTAP to IC50 for nhibition of PRMT5 methyltransferase activity in MTAP knockout human HCT-116 cells; assay type: cell-based
[11] = target: T1, Protein arginine N-methyltransferase 5; experiment: Inhibition of PRMT5 methyltransferase activity in MTAP knockout human HCT-116 cells assessed as inhibition of PRMT5- mediated SDMA modification level incubated for 96 hrs by Western blot analysis; assay type: cell-based
[12] = target: T1, Protein arginine N-methyltransferase 5; experiment: Binding affinity to MTA-bound human PRMT5 assessed as dissociation constant by SPR assay
[13] = target: T1, Protein arginine N-methyltransferase 5; remark: listed apart in the source
[14] = Half life in beagle dog at 2 mg/kg, iv measured upto 24 hrs by LC-MS/MS analysis; assay type: ADME, organism-based, Canis lupus familiaris; conditions: in vivo
[15] = Oral bioavailability in beagle dog at 10 mg/kg administered via gavage measured upto 24 hrs by LC-MS/MS analysis; assay type: ADME, organism-based, Canis lupus familiaris; conditions: in vivo
[16] = Total clearance in CD-1 mouse at 3 mg/kg, iv measured upto 24 hrs by LC-MS/MS analysis; assay type: ADME, organism-based; conditions: in vivo
[17] = Total clearance in beagle dog at 2 mg/kg, iv measured upto 24 hrs by LC-MS/MS analysis; assay type: ADME, organism-based, Canis lupus familiaris; conditions: in vivo
[18] = Volume of distribution at steady state in cynomolgus monkey at 2 mg/kg, iv measured upto 24 hrs by LC-MS/MS analysis; assay type: ADME, organism-based, Macaca fascicularis; conditions: in vivo, read-out: Vdss
[19] = AUCinfinity in CD-1 mouse at 30 mg/kg, po administered via gavage measured upto 24 hrs by LC-MS/MS analysis; assay type: ADME, organism-based; parameters: route oral, dose 30 mg/kg, time <=24; conditions: in vivo
[20] = Volume of distribution at steady state in beagle dog at 2 mg/kg, iv measured upto 24 hrs by LC-MS/MS analysis; assay type: ADME, organism-based, Canis lupus familiaris; conditions: in vivo, read-out: Vdss
[21] = AUCinfinity in beagle dog at 10 mg/kg, po administered via gavage measured upto 24 hrs by LC-MS/MS analysis; assay type: ADME, organism-based, Canis lupus familiaris; parameters: route oral, dose 10 mg/kg, time <=24; conditions: in vivo
[22] = Cmax in beagle dog at 10 mg/kg, po administered via gavage measured upto 24 hrs by LC-MS/MS analysis; assay type: ADME, organism-based, Canis lupus familiaris; parameters: route oral, dose 10 mg/kg, time <=24; conditions: in vivo
[23] = Volume of distribution at steady state in CD-1 mouse at 3 mg/kg, iv measured upto 24 hrs by LC-MS/MS analysis; assay type: ADME, organism-based; conditions: in vivo, read-out: Vdss
[24] = Half life in cynomolgus monkey at 2 mg/kg, iv measured upto 24 hrs by LC-MS/MS analysis; assay type: ADME, organism-based, Macaca fascicularis; conditions: in vivo
[25] = Oral bioavailability in CD-1 mouse at 30 mg/kg administered via gavage measured upto 24 hrs by LC-MS/MS analysis; assay type: ADME, organism-based; conditions: in vivo
[26] = Oral bioavailability in cynomolgus monkey at 10 mg/kg administered via gavage measured upto 24 hrs by LC-MS/MS analysis; assay type: ADME, organism-based, Macaca fascicularis; conditions: in vivo
[27] = Half life in CD-1 mouse at 3 mg/kg, iv measured upto 24 hrs by LC-MS/MS analysis; assay type: ADME, organism-based; conditions: in vivo
[28] = Cmax in CD-1 mouse at 30 mg/kg, po administered via gavage measured upto 24 hrs by LC-MS/MS analysis; assay type: ADME, organism-based; parameters: route oral, dose 30 mg/kg, time <=24; conditions: in vivo
[29] = Total clearance in cynomolgus monkey at 2 mg/kg, iv measured upto 24 hrs by LC-MS/MS analysis; assay type: ADME, organism-based, Macaca fascicularis; conditions: in vivo
PRMT5/MEP50 complex = PRMT5/MEP50 complex (Homo sapiens, UniProt O14744); experiment: Inhibition of streptavidin sensor chip immobilized biotinylated human PRMT5/MEP50 assessed as dissociation constant by SPR analysis; assay type: protein-complex assay
Chain of PRMT5/MEP50 complex (O14744 whole entry): as above
Chain of PRMT5/MEP50 complex (Q9BQA1 whole entry, further chain): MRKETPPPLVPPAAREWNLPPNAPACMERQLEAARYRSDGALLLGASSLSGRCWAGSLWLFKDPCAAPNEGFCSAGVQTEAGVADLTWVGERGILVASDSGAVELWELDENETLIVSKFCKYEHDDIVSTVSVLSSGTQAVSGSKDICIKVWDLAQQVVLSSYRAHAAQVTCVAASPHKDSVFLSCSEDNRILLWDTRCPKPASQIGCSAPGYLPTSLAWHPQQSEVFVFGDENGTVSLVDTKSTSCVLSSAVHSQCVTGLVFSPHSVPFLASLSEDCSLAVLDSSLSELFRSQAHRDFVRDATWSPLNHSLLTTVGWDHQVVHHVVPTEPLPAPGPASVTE

Lu-99 cell line [30] = experiment: Antitumor activity against MTAP/CDKN2A deleted human Lu-99 cells xenografted in Hsd athymic nude mouse assessed as tumor growth inhibition at 100 mg/kg, po qd administered via oral gavage for 21 days by caliper method relative to control; assay type: functional; conditions: Lu-99, po, 504 h, time 21 day, read-out: TGI
Lu-99 cell line [31] = experiment: Antitumor activity against MTAP/CDKN2A deleted human Lu-99 cells xenografted in Hsd athymic nude mouse assessed as tumor growth inhibition at 50 mg/kg, po qd administered via oral gavage for 21 days by caliper method relative to control; assay type: functional; conditions: Lu-99, po, 504 h, time 21 day, read-out: TGI
[32] = Toxicity in Hsd athymic nude mouse xenografted with MTAP/CDKN2A deleted human Lu-99 cells assessed as effect on body weight at 12.5 to 100 mg/kg, po qd administered via oral gavage for 21 days; assay type: organism-based, Lu-99 cell line; conditions: in vivo, 504 h, dose 12.5-100 mg/kg, time 21 day
Lu-99 cell line [33] = experiment: Antitumor activity against MTAP/CDKN2A deleted human Lu-99 cells xenografted in Hsd athymic nude mouse assessed as reduction in PRMT5 mediated SDMA level in tumor at 12.5 to 100 mg/kg, po qd administered via oral gavage for 21 days relative to control; assay type: functional; parameters: scale not given: the % may be the effect or the level left; conditions: dose 12.5-100 mg/kg, time 21 day
[34] = Inhibition of PRMT5 C449S mutant/MEP50 (unknown origin) using Histone H2A as substrate; parameters: species or system Homo sapiens

## Cn1cc(-c2ccc3c(=O)[nH]nc(CN)c3c2)cn1
[1]
  logD: -0.5
[2]
  Papp A→B at 2.5 h, 2 µM: 23 nm/s

## Cn1ncc(-c2ccc3c(=O)[nH]nc(CN)c3c2)c1-c1cccc(OC2CC2)c1C#N
[3]
  CLint scaled: < 1.08 L/h/kg
[4]
  Ratio IC50: 53
[5]
  IC50: 6.55 µM
[6]
  efflux ratio at 2.5 h, 2 µM: 104
HCT-116 [7]
  IC50: 6.82 µM
[8]
  CLint scaled: 14.2 L/h/kg
[9]
  IC50: 1 µM
HCT-116 [10]
  IC50: 0.129 µM
Homo sapiens
  Ratio IC50: 193
[11]
  IC50: 0.034 µM
[2]
  Papp A→B at 2.5 h, 2 µM: 3 nm/s

## Cn1ncc(-c2ccc3c(=O)[nH]nc(CN)c3c2)c1-c1cc(Cl)cc(OC2CC2)c1C#N
[3]
  CLint scaled: < 1.08 L/h/kg
[4]
  Ratio IC50: 24
[5]
  IC50: 0.834 µM
[6]
  efflux ratio at 2.5 h, 2 µM: 121
HCT-116 [7]
  IC50: 0.99 µM
[8]
  CLint scaled: 20.2 L/h/kg
HCT-116 [10]
  IC50: 0.041 µM
[11]
  IC50: 0.008 µM
[2]
  Papp A→B at 2.5 h, 2 µM: 2 nm/s

## NCc1nnc(O)c2ccc(-c3ccccc3)cc12
[12]
  Kd: 1.62 µM
[6]
  efflux ratio at 2.5 h, 2 µM: 0.8
[13]
  IC50: 14.5 µM
[9]
  IC50: 4.3 µM
[2]
  Papp A→B at 2.5 h, 2 µM: 160 nm/s

## Cn1ncc(-c2ccc3c(=O)[nH]nc(CN)c3c2)c1-c1c(F)cc2ccccc2c1C#N
[14]
  half-life: 3.9 h
[15]
  bioavailability: 60%
[16]
  clearance: 4.68 L/h/kg
[3]
  CLint scaled: 1.08 L/h/kg
[17]
  clearance: 1.26 L/h/kg
[18]
  Vd: 3.3 L/kg
[5]
  IC50: 0.569 µM and > 1 µM
[19]
  AUC(0-inf): 2.73 µg·h/mL
[20]
  Vd: 4.4 L/kg
[21]
  AUC(0-inf): 4.8 µg·h/mL
[22]
  Cmax: 0.88 µg/mL
[6]
  efflux ratio at 2.5 h, 2 µM: 85
[6]; mdck-mdr1, 2.5 h, 2 µM, 2.5 h
  Ratio: 136
[23]
  Vd: 5.3 L/kg
HCT-116 [7]
  IC50: 1.02 µM and 5.93 µM
[24]
  half-life: 2.6 h
[8]
  CLint scaled: 15.3 L/h/kg
[25]
  bioavailability: 34%
[26]
  bioavailability: 28%
[27]
  half-life: 1.5 h
[28]
  Cmax: 0.59 µg/mL
[2]
  Papp A→B at 2.5 h, 2 µM: 4 nm/s
  Papp: 3 nm/s
[29]
  clearance: 1.44 L/h/kg

## CSC[C@H]1O[C@@H](n2cnc3c(N)ncnc32)[C@H](O)[C@@H]1O [METHYLTHIOADENOSINE]
PRMT5/MEP50 complex
  Kd: 0.661 µM

## Cn1ncc(-c2ccc3c(=O)[nH]nc(CN)c3c2)c1-c1c(F)c(Cl)cc(OC2CC2)c1C#N
[14]
  half-life: 4.8 h
[15]
  bioavailability: 59%
[16]
  clearance: 4.98 L/h/kg
[3]
  CLint scaled: < 1.08 L/h/kg
Lu-99 cell line [30]
  inhibition in vivo at 100 mg/kg: 88%
[17]
  clearance: 0.84 L/h/kg
[18]
  Vd: 2.3 L/kg
[19]
  AUC(0-inf): 4.85 µg·h/mL
[20]
  Vd: 3.4 L/kg
Lu-99 cell line [31]
  inhibition in vivo at 50 mg/kg: 86%
[21]
  AUC(0-inf): 7.47 µg·h/mL
[22]
  Cmax: 1.4 µg/mL
[23]
  Vd: 6.3 L/kg
[24]
  half-life: 6.1 h
[32]
  Activity: Non-Toxic
Lu-99 cell line [33]
  Activity: 86%
[34]
  IC50: 0.717 µM
[25]
  bioavailability: 80%
[26]
  bioavailability: 41%
[27]
  half-life: 1.5 h
[28]
  Cmax: 1.16 µg/mL
[2]
  Papp A→B at 2.5 h, 2 µM: < 2 nm/s
  Papp: 3 nm/s
[29]
  clearance: 0.9 L/h/kg

## C[S@@+](CC[C@H](N)C(=O)[O-])C[C@H]1O[C@@H](n2cnc3c(N)ncnc32)[C@H](O)[C@@H]1O
PRMT5/MEP50 complex
  Kd: 0.55 µM
